According to BindingDB's records for doi:10.1021/jm00018a011 (Pfizer, 1995):

biological target: Platelet-activating factor receptor (Oryctolagus cuniculus); assay: Antagonistic activity was tested against Platelet-Activating Factor-induced aggregation of rabbit washed platelets.

Row | SMILES | IC50 [nM]
1 | Cc1nc2cnccc2n1-c1ccc(-c2nnc(-c3ccccc3)o2)cc1 [2-Methyl-1-[4-(5-phenyl-[1,3,4]oxadiazol-2-yl)-phenyl]-1H-imidazo[4,5-c]pyridine] | 44
2 | Cc1nc2cnccc2n1-c1ccc(C2CC(=O)Nc3cc(Cl)c(Cl)cc3C2)cc1 (centres undefined) [7,8-Dichloro-4-[4-(2-methyl-imidazo[4,5-c]pyridin-1-yl)-phenyl]-1,3,4,5-tetrahydro-benzo[b]azepin-2-one] | 0.5
3 | Cc1nc2cnccc2n1-c1ccc(I)cc1 [1-(4-Iodo-phenyl)-2-methyl-1H-imidazo[4,5-c]pyridine] | 67
4 | Cc1cc2c(cc1C)NC(=S)CC(c1ccc(-n3c(C)nc4cnccc43)cc1)=N2 [7,8-Dimethyl-4-[4-(2-methyl-imidazo[4,5-c]pyridin-1-yl)-phenyl]-1,3-dihydro-benzo[b][1,4]diazepine-2-thione] | 0.6
5 | Cc1cc2c(cc1C)N=C(c1ccc(-n3c(C)nc4cnccc43)cc1)CC(N)=N2 [7,8-Dimethyl-4-[4-(2-methyl-imidazo[4,5-c]pyridin-1-yl)-phenyl]-1,3-dihydro-benzo[b][1,4]diazepin-(2E)-ylideneamine] | 1.9
6 | Cc1nc2cnccc2n1-c1ccc(C2=NCCNC(=O)C2)cc1 [7-[4-(2-Methyl-imidazo[4,5-c]pyridin-1-yl)-phenyl]-1,2,3,4-tetrahydro-[1,4]diazepin-5-one] | 2600
7 | Cc1nc2cnccc2n1-c1ccc(C2=Nc3cc(Cl)c(Cl)cc3NC(=S)C2)cc1 [7,8-Dichloro-4-[4-(2-methyl-imidazo[4,5-c]pyridin-1-yl)-phenyl]-1,3-dihydro-benzo[b][1,4]diazepine-2-thione] | 0.5
8 | Cc1nc2cnccc2n1-c1ccc(C2=Nc3ccccc3N(C)C(=O)C2)cc1 [1-Methyl-4-[4-(2-methyl-imidazo[4,5-c]pyridin-1-yl)-phenyl]-1,3-dihydro-benzo[b][1,4]diazepin-2-one] | 4.9
9 | Cc1cc2c(cc1C)NC(=O)CC(c1ccc(-n3c(C)nc4cnccc43)cc1)=N2 [7,8-Dimethyl-4-[4-(2-methyl-imidazo[4,5-c]pyridin-1-yl)-phenyl]-1,3-dihydro-benzo[b][1,4]diazepin-2-one] | 0.7
10 | Cc1nc2cnccc2n1-c1ccc(C2CC(=O)N(C)c3cc(Cl)c(Cl)cc3C2)cc1 (centres undefined) [7,8-Dichloro-1-methyl-4-[4-(2-methyl-imidazo[4,5-c]pyridin-1-yl)-phenyl]-1,3,4,5-tetrahydro-benzo[b]azepin-2-one] | 0.5
11 | Cc1nc2cnccc2n1-c1ccc(C2=NC3CCCCC3NC(=O)C2)cc1 (centres undefined) [4-[4-(2-Methyl-imidazo[4,5-c]pyridin-1-yl)-phenyl]-1,5,5a,6,7,8,9,9a-octahydro-benzo[b][1,4]diazepin-2-one] | 200
12 | Cc1nc2cnccc2n1-c1ccc(C2=Nc3ccccc3C(=O)CC2)cc1 [2-[4-(2-Methyl-imidazo[4,5-c]pyridin-1-yl)-phenyl]-1,4-dihydro-benzo[b]azepin-5-one] | 15
13 | Cc1nc2cnccc2n1-c1ccccc1 [2-Methyl-1-phenyl-1H-imidazo[4,5-c]pyridine] | 840
14 | Cc1nc2cnccc2n1-c1ccc(-c2cc(=O)n3[nH]ccc3n2)cc1 [5-[4-(2-Methyl-imidazo[4,5-c]pyridin-1-yl)-phenyl]-4H-pyrazolo[1,5-a]pyrimidin-7-one] | 2800
